# Experimental data published in the supplement of paper PMC10307832.
# Columns and labels:
# Test in all cases: relative viability (nuclei count vs DMSO), 5 days (fraction); higher = more cells survive
# IU1-47 = compound: CC1=CC(=C(N1C2=CC=C(C=C2)Cl)C)C(=O)CN3CCCCC3 [IU1-47]
# Summary of the method: (§1)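 After an overnight hold at 37 °C, lung cancer cell lines in 1536-well plates were pinned with five library-drug doses (not always all listed), each √10 from the next, on vehicle-anchored plates. The cells stayed 5 days without fresh medium, then a one-step fix, permeabilisation and Hoechst stain preceded 4× imaging and MetaXpress nuclear counts. A plate passed only with control CV under 25% and at least one doubling. Viability is the median, over plates, of treated-well nuclei relative to vehicle-well nuclei.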
# FG-4592 = compound: Cc1nc(C(=O)NCC(=O)O)c(O)c2ccc(Oc3ccccc3)cc12 [FG-4592]
# Summary of the method: as §1
# IU1-47 + Foretinib = compound: CC1=CC(=C(N1C2=CC=C(C=C2)Cl)C)C(=O)CN3CCCCC3 [IU1-47] + COc1cc2c(Oc3ccc(NC(=O)C4(C(=O)Nc5ccc(F)cc5)CC4)cc3F)ccnc2cc1OCCCN1CCOCC1 [Foretinib] (partner 0.25 µM)
# Summary of the method: (§2)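 Each reported value is a median over duplicate plates. It expresses relative viability: treated-well nuclei count divided by vehicle-well nuclei count. Lung cancer cell lines in 1536-well plates were dosed by pin tool a day after seeding, alone with one drug or with a fixed anchor-drug dose plus five library-drug doses (not always all listed) in √10 steps, and nuclei were counted after 5 days.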
# IU1-47 + Lapatinib = compound: CC1=CC(=C(N1C2=CC=C(C=C2)Cl)C)C(=O)CN3CCCCC3 [IU1-47] + CS(=O)(=O)CCNCc1ccc(-c2ccc3ncnc(Nc4ccc(OCc5cccc(F)c5)c(Cl)c4)c3c2)o1 [Lapatinib] (partner 2 µM)
# Summary of the method: as §2
cell line,measurement,setting,value
UMC-11,relative viability,IU1-47; 0.08 µM,1.01
same,relative viability,IU1-47; 0.253 µM,0.961
same,relative viability,IU1-47; 0.8 µM,1.01
same,relative viability,IU1-47; 2.53 µM,0.991
same,relative viability,IU1-47; 8 µM,0.922
same,relative viability,FG-4592; 0.08 µM,0.952
same,relative viability,FG-4592; 0.253 µM,0.928
same,relative viability,FG-4592; 0.8 µM,0.806
same,relative viability,FG-4592; 2.53 µM,1.07
same,relative viability,FG-4592; 8 µM,0.804
same,relative viability,IU1-47 + Foretinib; first compound 0.08 µM,1.13
same,relative viability,IU1-47 + Foretinib; first compound 0.253 µM,0.99
same,relative viability,IU1-47 + Foretinib; first compound 0.8 µM,1.25
same,relative viability,IU1-47 + Foretinib; first compound 2.53 µM,1.15
same,relative viability,IU1-47 + Foretinib; first compound 8 µM,1.13
same,relative viability,IU1-47 + Lapatinib; first compound 0.08 µM,0.887
same,relative viability,IU1-47 + Lapatinib; first compound 0.253 µM,0.877
same,relative viability,IU1-47 + Lapatinib; first compound 0.8 µM,1.03
same,relative viability,IU1-47 + Lapatinib; first compound 2.53 µM,1.24
same,relative viability,IU1-47 + Lapatinib; first compound 8 µM,0.876
